Data as given in ChEMBL document CHEMBL5360657, “Discovery of the TLR7/8 Antagonist MHV370 for Treatment of Systemic Autoimmune Diseases” (ACS Med Chem Lett, 2023).

Legend:
Toll-like receptor 8 = molecular target: T1, Toll-like receptor 8 (Homo sapiens, UniProt Q9NR97); assay: Antagonist activity at TLR8 in human PBMC cells […] assessed as reduction in IL-6 level measured after 20 hrs by AlphaLISA assay; format: cell-based
T1 sequence (Q9NR97 whole entry): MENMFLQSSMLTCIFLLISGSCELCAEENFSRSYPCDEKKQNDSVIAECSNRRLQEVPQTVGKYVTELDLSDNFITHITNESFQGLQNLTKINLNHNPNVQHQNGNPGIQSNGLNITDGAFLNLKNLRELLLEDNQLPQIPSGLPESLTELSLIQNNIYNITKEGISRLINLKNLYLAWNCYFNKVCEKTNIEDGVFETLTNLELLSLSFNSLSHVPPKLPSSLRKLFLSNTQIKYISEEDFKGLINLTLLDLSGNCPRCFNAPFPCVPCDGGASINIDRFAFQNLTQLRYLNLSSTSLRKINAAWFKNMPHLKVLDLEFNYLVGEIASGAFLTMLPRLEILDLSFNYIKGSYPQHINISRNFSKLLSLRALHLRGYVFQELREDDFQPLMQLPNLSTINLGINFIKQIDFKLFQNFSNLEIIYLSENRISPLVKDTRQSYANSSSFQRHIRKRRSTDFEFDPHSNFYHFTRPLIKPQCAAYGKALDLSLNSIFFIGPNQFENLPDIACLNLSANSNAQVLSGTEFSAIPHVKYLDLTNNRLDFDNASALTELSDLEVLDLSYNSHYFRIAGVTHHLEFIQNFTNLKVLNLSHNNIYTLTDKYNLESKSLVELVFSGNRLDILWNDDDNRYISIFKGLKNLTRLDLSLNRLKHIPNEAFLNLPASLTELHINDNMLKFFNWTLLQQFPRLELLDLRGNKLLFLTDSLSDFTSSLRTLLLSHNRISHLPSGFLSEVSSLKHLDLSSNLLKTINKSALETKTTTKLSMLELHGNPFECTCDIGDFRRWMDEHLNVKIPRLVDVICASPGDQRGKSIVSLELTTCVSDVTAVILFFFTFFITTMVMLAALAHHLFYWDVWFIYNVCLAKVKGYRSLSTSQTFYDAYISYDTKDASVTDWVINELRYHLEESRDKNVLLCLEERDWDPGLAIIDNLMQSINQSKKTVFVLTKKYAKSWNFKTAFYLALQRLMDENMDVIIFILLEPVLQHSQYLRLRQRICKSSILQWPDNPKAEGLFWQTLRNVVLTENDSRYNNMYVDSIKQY

Toll-like receptor 9 = molecular target: T2, Toll-like receptor 9 (Homo sapiens, UniProt Q9NR96); assay: Antagonist activity at TLR9 in human PBMC cells assessed as reduction in IFN alpha measured after 20 hrs by AlphaLISA assay; format: cell-based
T2 sequence (Q9NR96 whole entry): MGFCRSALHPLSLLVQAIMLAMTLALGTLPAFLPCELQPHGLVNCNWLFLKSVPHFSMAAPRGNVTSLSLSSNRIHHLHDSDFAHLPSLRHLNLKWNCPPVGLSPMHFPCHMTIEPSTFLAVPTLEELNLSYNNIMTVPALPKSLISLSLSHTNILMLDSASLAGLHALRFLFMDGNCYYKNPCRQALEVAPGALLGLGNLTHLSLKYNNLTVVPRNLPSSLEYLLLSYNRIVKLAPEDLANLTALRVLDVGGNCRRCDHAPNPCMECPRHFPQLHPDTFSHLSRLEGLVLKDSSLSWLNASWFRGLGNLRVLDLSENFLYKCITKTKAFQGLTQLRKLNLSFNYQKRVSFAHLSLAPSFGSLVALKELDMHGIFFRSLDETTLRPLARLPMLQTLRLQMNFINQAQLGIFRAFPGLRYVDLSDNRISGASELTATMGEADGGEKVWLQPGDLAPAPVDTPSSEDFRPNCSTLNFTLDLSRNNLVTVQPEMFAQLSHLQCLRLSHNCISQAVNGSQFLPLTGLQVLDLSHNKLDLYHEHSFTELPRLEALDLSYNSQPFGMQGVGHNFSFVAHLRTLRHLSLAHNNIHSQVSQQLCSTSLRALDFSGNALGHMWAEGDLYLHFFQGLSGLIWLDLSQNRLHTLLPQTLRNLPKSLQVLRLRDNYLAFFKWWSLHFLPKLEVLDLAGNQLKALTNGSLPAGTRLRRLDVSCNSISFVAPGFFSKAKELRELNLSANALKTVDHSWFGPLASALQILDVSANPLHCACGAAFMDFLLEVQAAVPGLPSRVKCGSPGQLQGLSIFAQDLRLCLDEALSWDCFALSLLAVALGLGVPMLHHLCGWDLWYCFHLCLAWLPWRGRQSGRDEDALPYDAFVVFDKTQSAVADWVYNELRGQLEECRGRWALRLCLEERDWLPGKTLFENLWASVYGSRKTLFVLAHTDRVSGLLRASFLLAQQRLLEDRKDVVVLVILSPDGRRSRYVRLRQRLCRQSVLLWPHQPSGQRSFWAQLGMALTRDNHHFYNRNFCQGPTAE

[1] = Permeability of the compound by PAMPA; format: ADME
[2] = molecular target: Voltage-gated inwardly rectifying potassium channel KCNH2 (Homo sapiens, UniProt Q12809); assay: Displacement of [3H]-dofetilite from human ERG (unknown origin); format: toxicity
Cytochrome P450 3A4 [3] = molecular target: T3, Cytochrome P450 3A4 (Homo sapiens, UniProt P08684); assay: Inhibition of CYP3A4 (unknown origin); format: ADME
Cytochrome P450 3A4 [4] = molecular target: T3, Cytochrome P450 3A4; assay: Time dependent inhibition of CYP3A4 (unknown origin) assessed as Kobs; format: ADME
[5] = Metabolic stability in human liver microsomes assessed as intrinsic clearance; format: ADME, Microsome; settings: read-out: CLH
[6] = Metabolic stability in mouse liver microsomes assessed as intrinsic clearance; format: ADME, Microsome; settings: read-out: CLH
[7] = Metabolic stability in rat liver microsomes assessed as intrinsic clearance; format: ADME, Microsome; settings: read-out: CLH
[8] = Volume of distribution at steady state in mouse at 1 mg/ml, po or iv; format: ADME, organism-based; settings: in vivo
[9] = MRT in rat at 1 mg/ml, po or iv; format: ADME, organism-based; settings: in vivo
[10] = Oral bioavailability in rat at 1 mg/ml; format: ADME, organism-based; settings: in vivo

Voltage-gated inwardly rectifying potassium channel KCNH2, sequence (Q12809 whole entry): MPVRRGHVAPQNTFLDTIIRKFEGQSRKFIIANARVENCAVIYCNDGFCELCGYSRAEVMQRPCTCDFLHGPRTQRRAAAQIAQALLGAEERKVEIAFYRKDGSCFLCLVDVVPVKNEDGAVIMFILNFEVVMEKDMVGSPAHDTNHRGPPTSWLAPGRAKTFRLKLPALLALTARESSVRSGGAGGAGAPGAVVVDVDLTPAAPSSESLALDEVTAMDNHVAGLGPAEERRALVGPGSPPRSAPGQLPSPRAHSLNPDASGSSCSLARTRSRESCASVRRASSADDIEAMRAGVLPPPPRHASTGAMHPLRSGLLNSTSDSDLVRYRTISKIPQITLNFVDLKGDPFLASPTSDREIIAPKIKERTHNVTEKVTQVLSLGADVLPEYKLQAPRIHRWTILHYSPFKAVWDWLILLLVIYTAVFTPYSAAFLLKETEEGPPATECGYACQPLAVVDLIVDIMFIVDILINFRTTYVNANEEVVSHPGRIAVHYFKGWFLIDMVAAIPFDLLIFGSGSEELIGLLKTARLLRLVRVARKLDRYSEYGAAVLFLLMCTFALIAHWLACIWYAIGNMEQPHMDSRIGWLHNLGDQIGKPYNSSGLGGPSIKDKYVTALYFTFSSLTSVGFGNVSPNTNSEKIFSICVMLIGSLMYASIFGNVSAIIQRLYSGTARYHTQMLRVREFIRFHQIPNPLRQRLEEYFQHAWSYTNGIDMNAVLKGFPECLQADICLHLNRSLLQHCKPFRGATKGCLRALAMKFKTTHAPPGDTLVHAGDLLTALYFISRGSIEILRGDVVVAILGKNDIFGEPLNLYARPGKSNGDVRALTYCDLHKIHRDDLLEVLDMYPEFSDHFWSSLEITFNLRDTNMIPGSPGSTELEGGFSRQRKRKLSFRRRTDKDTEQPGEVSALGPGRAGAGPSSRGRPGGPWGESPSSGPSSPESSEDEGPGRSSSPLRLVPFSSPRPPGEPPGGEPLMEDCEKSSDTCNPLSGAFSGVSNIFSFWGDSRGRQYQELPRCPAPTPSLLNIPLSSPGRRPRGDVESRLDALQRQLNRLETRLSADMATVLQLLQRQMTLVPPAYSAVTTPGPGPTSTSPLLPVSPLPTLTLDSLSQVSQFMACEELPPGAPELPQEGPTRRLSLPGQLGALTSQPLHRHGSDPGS
T3 sequence (P08684 whole entry): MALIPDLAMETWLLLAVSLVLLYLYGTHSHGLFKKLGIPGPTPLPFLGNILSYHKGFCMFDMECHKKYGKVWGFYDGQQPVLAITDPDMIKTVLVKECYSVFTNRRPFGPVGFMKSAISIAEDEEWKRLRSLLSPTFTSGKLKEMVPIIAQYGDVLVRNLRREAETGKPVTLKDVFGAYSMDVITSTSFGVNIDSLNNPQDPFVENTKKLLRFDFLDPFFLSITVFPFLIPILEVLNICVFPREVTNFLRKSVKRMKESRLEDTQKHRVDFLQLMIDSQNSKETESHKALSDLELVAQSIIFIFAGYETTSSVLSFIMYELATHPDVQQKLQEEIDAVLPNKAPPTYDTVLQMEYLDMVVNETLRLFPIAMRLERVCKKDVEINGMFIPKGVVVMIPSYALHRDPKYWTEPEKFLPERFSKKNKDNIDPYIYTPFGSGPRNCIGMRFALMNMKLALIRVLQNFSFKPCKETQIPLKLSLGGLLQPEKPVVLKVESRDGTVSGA

Compound | IC50 (Toll-like receptor 8) | IC50 (Toll-like receptor 9) | log(permeability) [1] | IC50 [2] | IC50 (Cytochrome P450 3A4 [3]) | Kobs (Cytochrome P450 3A4 [4]) | microsomal CLint [5] | microsomal CLint [6] | microsomal CLint [7] | Vdss [8] | MRT [9] | bioavailability [10]
Cc1cc(N2CCc3c(c(C)nn3CC34CCC(N)(CC3)CC4)C2)c2cnn(C)c2n1 | 210 nM | 580 nM | -5.1 | 29000 nM | > 50000 nM | 0.002 min⁻¹ | 19 µL/min/mg | 15 µL/min/mg | 36 µL/min/mg |  |  | 
CCNCC(=O)NC12CCC(Cn3nc(C)c4c3CCN(c3cc(C)nc5c3cnn5C)C4)(CC1)CC2 | 44 nM | 810 nM | -5.3 | > 30000 nM | > 50000 nM | 0.01 min⁻¹ | 35 µL/min/mg | 96 µL/min/mg | < 15 µL/min/mg | 1 L/kg | 2.8 h | 12%
Cc1cc(N2CCc3c(c(C)nn3CC34CCC(NC(=O)[C@@H]5COCCN5)(CC3)CC4)C2)c2cnn(C)c2n1 [MHV-370] | 68 nM | 1000 nM | -5.2 | > 30000 nM | > 50000 nM | 0.006 min⁻¹ | 19 µL/min/mg | 52 µL/min/mg | 17 µL/min/mg | 0.7 L/kg | 1.2 h | 52%
